From ChEMBL document CHEMBL3865816, “Design, synthesis and biological evaluation of novel azaspiro analogs of linezolid as antibacterial and antitubercular agents” (Eur J Med Chem, 2016)
≈ marks a conversion by molar mass, not a printed value.

Columns and labels:
Assay type in all cases: functional
Pseudomonas aeruginosa [1] = assay: Antibacterial activity against Pseudomonas aeruginosa NCIM 2036 measured after 8 hrs by spectrophotometric method; conditions: NCIM 2036, 8 h
Staphylococcus aureus [2] = assay: Antibacterial activity against Staphylococcus aureus NCIM 2079 measured after 12 hrs by spectrophotometric method; conditions: NCIM 2079, 12 h
Escherichia coli [3] = assay: Antibacterial activity against Escherichia coli NCIM 2688 measured after 8 hrs by spectrophotometric method; conditions: NCIM 2688, 8 h
Bacillus subtilis [4] = assay: Antibacterial activity against Bacillus subtilis NCIM 2010 measured after 12 hrs by spectrophotometric method; conditions: NCIM 2010, 12 h
[5] = test system: Mycobacterium tuberculosis; assay: Antitubercular activity against dormant stage Mycobacterium tuberculosis H37Ra measured after 12 days by XTT assay; conditions: 288 h
Escherichia coli [6] = assay: Antibacterial activity against Escherichia coli NCIM 2688 at 30 ug/ml measured after 8 hrs by spectrophotometric method; conditions: NCIM 2688, 8 h
Escherichia coli [7] = assay: Antibacterial activity against Escherichia coli NCIM 2688 at 10 ug/ml measured after 8 hrs by spectrophotometric method; conditions: NCIM 2688, 8 h
Escherichia coli [8] = assay: Antibacterial activity against Escherichia coli NCIM 2688 at 3 ug/ml measured after 8 hrs by spectrophotometric method; conditions: NCIM 2688, 8 h
Pseudomonas aeruginosa [9] = assay: Antibacterial activity against Pseudomonas aeruginosa NCIM 2036 at 30 ug/ml measured after 8 hrs by spectrophotometric method; conditions: NCIM 2036, 8 h
Pseudomonas aeruginosa [10] = assay: Antibacterial activity against Pseudomonas aeruginosa NCIM 2036 at 10 ug/ml measured after 8 hrs by spectrophotometric method; conditions: NCIM 2036, 8 h
Pseudomonas aeruginosa [11] = assay: Antibacterial activity against Pseudomonas aeruginosa NCIM 2036 at 3 ug/ml measured after 8 hrs by spectrophotometric method; conditions: NCIM 2036, 8 h
Staphylococcus aureus [12] = assay: Antibacterial activity against Staphylococcus aureus NCIM 2079 at 30 ug/ml measured after 12 hrs by spectrophotometric method; conditions: NCIM 2079, 12 h
Staphylococcus aureus [13] = assay: Antibacterial activity against Staphylococcus aureus NCIM 2079 at 10 ug/ml measured after 12 hrs by spectrophotometric method; conditions: NCIM 2079, 12 h
Staphylococcus aureus [14] = assay: Antibacterial activity against Staphylococcus aureus NCIM 2079 at 3 ug/ml measured after 12 hrs by spectrophotometric method; conditions: NCIM 2079, 12 h
Bacillus subtilis [15] = assay: Antibacterial activity against Bacillus subtilis NCIM 2010 at 30 ug/ml measured after 12 hrs by spectrophotometric method; conditions: NCIM 2010, 12 h
Bacillus subtilis [16] = assay: Antibacterial activity against Bacillus subtilis NCIM 2010 at 10 ug/ml measured after 12 hrs by spectrophotometric method; conditions: NCIM 2010, 12 h
Bacillus subtilis [17] = assay: Antibacterial activity against Bacillus subtilis NCIM 2010 at 3 ug/ml measured after 12 hrs by spectrophotometric method; conditions: NCIM 2010, 12 h
[18] = test system: Mycobacterium tuberculosis; assay: Antitubercular activity against dormant stage Mycobacterium tuberculosis H37Ra at 30 ug/ml measured after 12 days by XTT assay; conditions: 288 h
[19] = test system: Mycobacterium tuberculosis; assay: Antitubercular activity against dormant stage Mycobacterium tuberculosis H37Ra at 10 ug/ml measured after 12 days by XTT assay; conditions: 288 h
[20] = test system: Mycobacterium tuberculosis; assay: Antitubercular activity against dormant stage Mycobacterium tuberculosis H37Ra at 3 ug/ml measured after 12 days by XTT assay; conditions: 288 h

Row | SMILES | IC50 (Pseudomonas aeruginosa [1]) | MIC (Pseudomonas aeruginosa [1]) | IC50 (Staphylococcus aureus [2]) | MIC (Staphylococcus aureus [2]) | IC50 (Escherichia coli [3]) | MIC (Escherichia coli [3]) | IC50 (Bacillus subtilis [4]) | MIC (Bacillus subtilis [4]) | IC50 [5] | MIC [5] | inhibition at 30 µg/mL (Escherichia coli [6]) | inhibition at 10 µg/mL (Escherichia coli [7]) | inhibition at 3 µg/mL (Escherichia coli [8]) | inhibition at 30 µg/mL (Pseudomonas aeruginosa [9]) | inhibition at 10 µg/mL (Pseudomonas aeruginosa [10]) | inhibition at 3 µg/mL (Pseudomonas aeruginosa [11]) | inhibition at 30 µg/mL (Staphylococcus aureus [12]) | inhibition at 10 µg/mL (Staphylococcus aureus [13]) | inhibition at 3 µg/mL (Staphylococcus aureus [14]) | inhibition at 30 µg/mL (Bacillus subtilis [15]) | further results
1 | O=C1O[C@@H](CNS(=O)(=O)c2cccc(C(F)(F)F)c2)CN1c1ccc(N2CC3(COC3)C2)c(F)c1 | > 100 µg/mL | > 100 µg/mL | > 100 µg/mL | > 100 µg/mL | 0.57 µg/mL (≈ 1.11 µM) | 3.03 µg/mL (≈ 5.88 µM) | > 100 µg/mL | > 100 µg/mL | > 100 µg/mL | > 100 µg/mL | 99.5% | 97.5% | 90.5% | 70.8% | 43% | 0.66% | 19.5% | 17.3% | -2.71% | 25% | inhibition at 10 µg/mL (Bacillus subtilis [16]): 17.5%; inhibition at 3 µg/mL (Bacillus subtilis [17]): 11.2%; inhibition at 30 µg/mL [18]: 25.1%; inhibition at 10 µg/mL [19]: -59%; inhibition at 3 µg/mL [20]: 5.38%
2 | COc1ccc(NC(=S)NC[C@H]2CN(c3ccc(N4CC5(COC5)C4)c(F)c3)C(=O)O2)cc1 | > 100 µg/mL | > 100 µg/mL | 0.74 to 100 µg/mL (≈ 1.57 to 212 µM) | 16.1 to 100 µg/mL (≈ 34.1 to 212 µM) | 1.1 µg/mL (≈ 2.33 µM) | 10.7 µg/mL (≈ 22.6 µM) | 1.1 µg/mL (≈ 2.33 µM) | 8.78 µg/mL (≈ 18.6 µM) | > 100 µg/mL | > 100 µg/mL | 98% | 89.4% | 82.2% | 58.5% | 30.1% | 17.7% | 98.3% | 88.7% | 81.4% | 100% | inhibition at 10 µg/mL (Bacillus subtilis [16]): 95.3%; inhibition at 3 µg/mL (Bacillus subtilis [17]): 77.9%; inhibition at 30 µg/mL [18]: 23.3%; inhibition at 10 µg/mL [19]: -3.34%; inhibition at 3 µg/mL [20]: 14.3%
3 | O=C1O[C@@H](CNC(=S)Nc2cccc(C(F)(F)F)c2)CN1c1ccc(N2CC3(COC3)C2)c(F)c1 | > 100 µg/mL | > 100 µg/mL | > 100 µg/mL | > 100 µg/mL | 0.49 µg/mL (≈ 0.96 µM) | 2.41 µg/mL (≈ 4.72 µM) | > 100 µg/mL | > 100 µg/mL | > 100 µg/mL | > 100 µg/mL | 96.3% | 95.8% | 93.3% | 79.6% | 67% | 45.2% | 94.5% | 79.2% | 64.1% | 97.2% | inhibition at 10 µg/mL (Bacillus subtilis [16]): 80.2%; inhibition at 3 µg/mL (Bacillus subtilis [17]): 65.9%; inhibition at 30 µg/mL [18]: 78%; inhibition at 10 µg/mL [19]: 44.5%; inhibition at 3 µg/mL [20]: 10.7%
